{"source": "PubChem BioAssay (NCI)", "assay_in_all_cases": "inhibition of tumour cell growth, NCI panel, 48 h", "key": {"[1]": {"system": "786-0 renal"}, "[2]": {"system": "A498 renal"}, "[3]": {"system": "ACHN renal"}, "[4]": {"system": "BT-549 breast"}, "[5]": {"system": "CAKI-1 renal"}, "[6]": {"system": "DU-145 prostate"}, "[7]": {"system": "EKVX NSCLC"}, "[8]": {"system": "HCC-2998 colon"}, "[9]": {"system": "HCT-116 colon"}, "[10]": {"system": "HCT-15 colon"}, "[11]": {"system": "HOP-92 NSCLC"}, "[12]": {"system": "HS 578T breast"}, "[13]": {"system": "IGROV1 ovarian"}, "[14]": {"system": "K-562 leukemia"}, "[15]": {"system": "KM12 colon"}, "[16]": {"system": "LOX IMVI melanoma"}, "[17]": {"system": "M14 melanoma"}, "[18]": {"system": "MALME-3M melanoma"}, "[19]": {"system": "MCF7 breast"}, "[20]": {"system": "MDA-MB-231 breast"}, "[21]": {"system": "MDA-MB-435"}, "[22]": {"system": "MDA-MB-468 breast"}, "[23]": {"system": "MOLT-4 leukemia"}, "[24]": {"system": "NCI-H226 lung"}, "[25]": {"system": "NCI-H23 lung"}, "[26]": {"system": "NCI-H460 lung"}, "[27]": {"system": "NCI/ADR-RES ovarian"}, "[28]": {"system": "OVCAR-3 ovarian"}, "[29]": {"system": "OVCAR-4 ovarian"}, "[30]": {"system": "OVCAR-5 ovarian"}, "[31]": {"system": "RPMI-8226 leukemia"}, "[32]": {"system": "RXF 393 renal"}, "[33]": {"system": "SF-268 CNS"}, "[34]": {"system": "SF-295 CNS"}, "[35]": {"system": "SF-539 CNS"}, "[36]": {"system": "SK-MEL-2 melanoma"}, "[37]": {"system": "SK-MEL-28 melanoma"}, "[38]": {"system": "SK-MEL-5 melanoma"}, "[39]": {"system": "SK-OV-3 ovarian"}, "[40]": {"system": "SN12C renal"}, "[41]": {"system": "SNB-19 CNS"}, "[42]": {"system": "SNB-75 CNS"}, "[43]": {"system": "SR leukemia"}, "[44]": {"system": "SW-620 colon"}, "[45]": {"system": "TK-10 renal"}, "[46]": {"system": "U251 CNS"}, "[47]": {"system": "UACC-257 melanoma"}, "[48]": {"system": "UACC-62 melanoma"}, "[49]": {"system": "UO-31 renal"}}, "note": "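Compound exposure: 48 hours, 5 concentrations, 96-well plates. Here, GI50 denotes the concentration required for 50% inhibition of growth. TGI: total growth inhibition.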", "data": [{"compound": "CC1(C)CC[C@]23CC[C@]4(C)[C@H](CC[C@@H]5[C@@]6(C)CC[C@H](N)C(C)(C)[C@@H]6CC[C@]54C)[C@H]2[C@H]1OC3=O", "values": [{"measurement": "GI50", "setting": "[1]", "value": 1450, "unit": "nM"}, {"measurement": "TGI", "setting": "[1]", "value": 2920, "unit": "nM"}, {"measurement": "GI50", "setting": "[2]", "value": 1480, "unit": "nM"}, {"measurement": "TGI", "setting": "[2]", "value": 3440, "unit": "nM"}, {"measurement": "GI50", "setting": "[3]", "value": 1680, "unit": "nM"}, {"measurement": "TGI", "setting": "[3]", "value": 3050, "unit": "nM"}, {"measurement": "GI50", "setting": "[4]", "value": 1520, "unit": "nM"}, {"measurement": "TGI", "setting": "[4]", "value": 2920, "unit": "nM"}, {"measurement": "GI50", "setting": "[5]", "value": 1570, "unit": "nM"}, {"measurement": "TGI", "setting": "[5]", "value": 2980, "unit": "nM"}, {"measurement": "GI50", "setting": "[6]", "value": 1810, "unit": "nM"}, {"measurement": "TGI", "setting": "[6]", "value": 3310, "unit": "nM"}, {"measurement": "GI50", "setting": "[7]", "value": 1700, "unit": "nM"}, {"measurement": "TGI", "setting": "[7]", "value": 3160, "unit": "nM"}, {"measurement": "GI50", "setting": "[8]", "value": 1610, "unit": "nM"}, {"measurement": "TGI", "setting": "[8]", "value": 3020, "unit": "nM"}, {"measurement": "GI50", "setting": "[9]", "value": 1600, "unit": "nM"}, {"measurement": "TGI", "setting": "[9]", "value": 3050, "unit": "nM"}, {"measurement": "GI50", "setting": "[10]", "value": 1640, "unit": "nM"}, {"measurement": "TGI", "setting": "[10]", "value": 3070, "unit": "nM"}, {"measurement": "GI50", "setting": "[11]", "value": 1590, "unit": "nM"}, {"measurement": "TGI", "setting": "[11]", "value": 3150, "unit": "nM"}, {"measurement": "GI50", "setting": "[12]", "value": 1890, "unit": "nM"}, {"measurement": "TGI", "setting": "[12]", "value": 4090, "unit": "nM"}, {"measurement": "GI50", "setting": "[13]", "value": 1680, "unit": "nM"}, {"measurement": "TGI", "setting": "[13]", "value": 3100, "unit": "nM"}, {"measurement": "GI50", "setting": "[14]", "value": 2530, "unit": "nM"}, {"measurement": "TGI", "setting": "[14]", "value": "> 100000", "unit": "nM"}, {"measurement": "GI50", "setting": "[15]", "value": 1820, "unit": "nM"}, {"measurement": "TGI", "setting": "[15]", "value": 3410, "unit": "nM"}, {"measurement": "GI50", "setting": "[16]", "value": 1680, "unit": "nM"}, {"measurement": "TGI", "setting": "[16]", "value": 3050, "unit": "nM"}, {"measurement": "GI50", "setting": "[17]", "value": 1810, "unit": "nM"}, {"measurement": "TGI", "setting": "[17]", "value": 3340, "unit": "nM"}, {"measurement": "GI50", "setting": "[18]", "value": 1670, "unit": "nM"}, {"measurement": "TGI", "setting": "[18]", "value": 3060, "unit": "nM"}, {"measurement": "GI50", "setting": "[19]", "value": 1570, "unit": "nM"}, {"measurement": "TGI", "setting": "[19]", "value": 3220, "unit": "nM"}, {"measurement": "GI50", "setting": "[20]", "value": 1690, "unit": "nM"}, {"measurement": "TGI", "setting": "[20]", "value": 3090, "unit": "nM"}, {"measurement": "GI50", "setting": "[21]", "value": 1600, "unit": "nM"}, {"measurement": "TGI", "setting": "[21]", "value": 3110, "unit": "nM"}, {"measurement": "GI50", "setting": "[22]", "value": 1690, "unit": "nM"}, {"measurement": "TGI", "setting": "[22]", "value": 3180, "unit": "nM"}, {"measurement": "GI50", "setting": "[23]", "value": 1850, "unit": "nM"}, {"measurement": "TGI", "setting": "[23]", "value": 4380, "unit": "nM"}, {"measurement": "GI50", "setting": "[24]", "value": 2150, "unit": "nM"}, {"measurement": "TGI", "setting": "[24]", "value": 5470, "unit": "nM"}, {"measurement": "GI50", "setting": "[25]", "value": 1740, "unit": "nM"}, {"measurement": "TGI", "setting": "[25]", "value": 3220, "unit": "nM"}, {"measurement": "GI50", "setting": "[26]", "value": 1640, "unit": "nM"}, {"measurement": "TGI", "setting": "[26]", "value": 3170, "unit": "nM"}, {"measurement": "GI50", "setting": "[27]", "value": 1800, "unit": "nM"}, {"measurement": "TGI", "setting": "[27]", "value": 3610, "unit": "nM"}, {"measurement": "GI50", "setting": "[28]", "value": 1660, "unit": "nM"}, {"measurement": "TGI", "setting": "[28]", "value": 3100, "unit": "nM"}, {"measurement": "GI50", "setting": "[29]", "value": 1940, "unit": "nM"}, {"measurement": "TGI", "setting": "[29]", "value": 3860, "unit": "nM"}, {"measurement": "GI50", "setting": "[30]", "value": 1650, "unit": "nM"}, {"measurement": "TGI", "setting": "[30]", "value": 3020, "unit": "nM"}, {"measurement": "GI50", "setting": "[31]", "value": 2100, "unit": "nM"}, {"measurement": "TGI", "setting": "[31]", "value": 5260, "unit": "nM"}, {"measurement": "GI50", "setting": "[32]", "value": 1630, "unit": "nM"}, {"measurement": "TGI", "setting": "[32]", "value": 3110, "unit": "nM"}, {"measurement": "GI50", "setting": "[33]", "value": 1690, "unit": "nM"}, {"measurement": "TGI", "setting": "[33]", "value": 3360, "unit": "nM"}, {"measurement": "GI50", "setting": "[34]", "value": 1760, "unit": "nM"}, {"measurement": "TGI", "setting": "[34]", "value": 3220, "unit": "nM"}, {"measurement": "GI50", "setting": "[35]", "value": 1680, "unit": "nM"}, {"measurement": "TGI", "setting": "[35]", "value": 3050, "unit": "nM"}, {"measurement": "GI50", "setting": "[36]", "value": 3020, "unit": "nM"}, {"measurement": "TGI", "setting": "[36]", "value": 9410, "unit": "nM"}, {"measurement": "GI50", "setting": "[37]", "value": 1780, "unit": "nM"}, {"measurement": "TGI", "setting": "[37]", "value": 3180, "unit": "nM"}, {"measurement": "GI50", "setting": "[38]", "value": 1750, "unit": "nM"}, {"measurement": "TGI", "setting": "[38]", "value": 3140, "unit": "nM"}, {"measurement": "GI50", "setting": "[39]", "value": 12100, "unit": "nM"}, {"measurement": "TGI", "setting": "[39]", "value": 37300, "unit": "nM"}, {"measurement": "GI50", "setting": "[40]", "value": 1640, "unit": "nM"}, {"measurement": "TGI", "setting": "[40]", "value": 3050, "unit": "nM"}, {"measurement": "GI50", "setting": "[41]", "value": 1640, "unit": "nM"}, {"measurement": "TGI", "setting": "[41]", "value": 3050, "unit": "nM"}, {"measurement": "GI50", "setting": "[42]", "value": 1360, "unit": "nM"}, {"measurement": "TGI", "setting": "[42]", "value": 2860, "unit": "nM"}, {"measurement": "GI50", "setting": "[43]", "value": 1590, "unit": "nM"}, {"measurement": "TGI", "setting": "[43]", "value": 5080, "unit": "nM"}, {"measurement": "GI50", "setting": "[44]", "value": 1440, "unit": "nM"}, {"measurement": "TGI", "setting": "[44]", "value": 2860, "unit": "nM"}, {"measurement": "GI50", "setting": "[45]", "value": 1700, "unit": "nM"}, {"measurement": "TGI", "setting": "[45]", "value": 3490, "unit": "nM"}, {"measurement": "GI50", "setting": "[46]", "value": 1720, "unit": "nM"}, {"measurement": "TGI", "setting": "[46]", "value": 3270, "unit": "nM"}, {"measurement": "GI50", "setting": "[47]", "value": 1800, "unit": "nM"}, {"measurement": "TGI", "setting": "[47]", "value": 3430, "unit": "nM"}, {"measurement": "GI50", "setting": "[48]", "value": 1730, "unit": "nM"}, {"measurement": "TGI", "setting": "[48]", "value": 3190, "unit": "nM"}, {"measurement": "GI50", "setting": "[49]", "value": 1510, "unit": "nM"}, {"measurement": "TGI", "setting": "[49]", "value": 2870, "unit": "nM"}]}]}
